Reference: US20240041833A1, “PHARMACEUTICAL COMBINATION PRODUCT COMPRISING A PROTOPARVOVIRUS AND AN ANTIVIRAL BENZIMIDAZOLE AND USES THEREOF FOR TREATING CANCER” (priority 2020, published 2024)

Key:
[1] = system: xenograft rat model of human pancreatic carcinoma; settings: in vivo, in combination with H-1PV; cited from earlier work
[2] = system: different cancer cell lines of different origins; settings: in vitro, in combination with H-1PV; cited from earlier work
[3] = system: SNB-19 and U-373 glioma cells; settings: drug 4-0.156 μM in combination with H-1PV MOI 1 pfu/cell, 72 h; compared to cells infected only with H-1PV
Experimental: The screening was performed with the Agilent BioCel automated workstation housed in an Ermaflux L2 biosafety cabinet (equipped with charcoal filters to trap gases). The glioma cell lines SNB-19 and U-373 were used for the screening. Cells were seeded with the BRAVO pipettor in 384 well cell culture microplate at 15% confluence in medium supplemented with 10% FBS and penicillin/streptomycin. After overnight incubation half of the plates was infected with wild-type H-1 PV at MOI of 1 plaque forming unit (pfu)/cell, the other half kept untreated. All cells were then treated with 5 concentrations of each of the 1,443 compounds (5-point dose curve incorporating a […] dilution step in duplicates, range 4-0.156 μM). […] PrestoBlue® is a cell viability indicator by using the reducing power of living cells to quantitatively measure the proliferation of cells. […] Conversion is proportional to the number of metabolically active cells and therefore can be measured quantitatively. Quantitation of fluorescent signal intensity of the cell culture supernatant was carried out using the HTS-ready Berthold MITHRAS LB 940 fluorescent plate reader at excitation and emission wavelengths of 569/586 nm (reduced resazurin form resorufin). […]

U-373 glioma cells = experiment: LDH assay of treatment-induced cell lysis (Example 5); type: cell-based, human; settings: 4 μM LDV and/or increasing viral MOIs, 96 h
Experimental: (§1) In an lactate dehydrogenase assay (LDH assay) LDH released from a cell, e.g. due to cell lysis, oxidizes lactate to generate NADH, which then in turn reacts with a colorimetric substrate to generate a quantifiable colour change, which is directly correlated to the amount of LDH released and can, as such, used as a measure of cell lysis.
(§2) Cancer cell lines were seeded at a density of 3,000 (U-251, BxPC-3, Panc-1, DU-145, A-549, HOP-62 and Caki-1) or 4,000 (SNB-19, AsPC-1, PC3 and U-373) cells/well in 96-well plates in 50 μl of their respective culture medium supplemented with 10% heat inactivated FBS. After 24 h, 50 μl of FBS-free medium with or without H-1PV and/or Ledipasvir (LDV; Selleck Chemicals LLC, Houston, TX, USA) was added. Cells were incubated for 3-5 days and then subjected to […] LDH assay (CytoTox 96 non-radioactive cytotoxicity assay, Promega Madison, WI, USA), according to the manufacturer's instructions. For each condition tested, six replicates were prepared of which three were used for calculating the total lysis in the presence of detergent as previously described (25).
U-373 glioma cells treated (or not) with 4 μM LDV were infected (or not) with increasing viral MOIs (pfu/cell) and treatment-induced cell lysis was assessed by LDH assay.
U373 glioma cells, were grown for 24 h before being treated for 96 h as indicated. […]

SNB-19 cells = experiment: Real-time detection of cell viability and proliferation (xCELLIgence); type: cell-based, human; settings: LDV and/or H-1PV, monitored every 30 min for 150 hours
Experimental: (§3) Human cancer cells were seeded into a 96-well E-plate (ACEA Biosciences, San Diego, CA, USA) at a density of 4000 cells/well. After 24 h, cells were infected or not with H-1PV and grown in the presence or absence of LDV. Growth of mock treated cells and virus infected cells was monitored in real-time every 30 min, for 6 days using the xCELLIgence System (ACEA). Cell proliferation was expressed as normalized cell index (CI), a parameter directly proportional to the number of attached cells per well and, therefore, strictly correlated with cell proliferation and viability. The growth curves represent the averages of the results of at least three replicates
(§4) The xCELLIgence system allows the monitoring in real time of cell proliferation and viability. This system was used to confirm the anti-cancer effect of H-1PV/LDV co-treatment. Three cancer cell lines were used for these experiments, namely glioma cell lines […], and pancreatic carcinoma cell line AsPC-1. Cells were treated (or not) with H-1PV in the presence or absence of LDV. Cell proliferation was monitored every 30 min for a total of 150 hours.
(§5) Cancer cells were seeded in a 96-well E-plate. […] Cell proliferation was monitored in real-time using the xCELLIgence system. The values in FIG. 4 are expressed as normalized cell index and plotted against time. […]

AsPC-1 cells = experiment: as above; type: cell-based, human; settings: LDV (1 and 4 μM) and/or H-1PV (up to MOI 100 pfu/cell), monitored for 150 hours
Experimental: as §3, §4, §5

[4] = system: SNB-19, U-373 and AsPC-1 cell lines; experiment: Optical microscopy analysis (IncuCyte ZOOM) of morphological/cytopathic effects; type: cell-based, human; settings: 4 μM LDV and/or H-1PV MOI 1 (SNB-19) or 100 (U-373, AsPC-1); 4 days (96 h) post-treatment
Experimental: Two glioblastoma cell lines (SNB-19 and U-373) and a pancreatic cell line (AsPC-1) displaying different susceptibility to H-1 PV infection were treated (or not) with increasing amounts of H-1PV (MOI, pfu/cell) in the presence or absence of 4 μM LDV.
The cancer cell lines indicated in FIG. 3 were plated at the same density. After 24 h, cells were infected (or not) with H-1 PV used at the MOI (pfu/cell) of 1 (SNB-19), or 100 (U-373 and AsPC-1) in combination (or not) with 4 μM LDV. Light microscopy images were acquired using the IncuCyte ZOOM™ live cell imaging system (Essen BioScience, MI USA) at 96 h after treatment.

[5] = system: U-251, BxPC-3, Panc-1, Du-145, A-549, Hop-62 and Caki-1 cancer cell lines; experiment: LDH assay of treatment-induced cell lysis (Example 6); type: cell-based, human; settings: LDV, H-1PV or both, 96 h, seven cancer cell lines
Experimental: as §1, §2
H-1 PV can target and kill a broad spectrum of cancer cell lines from different tumour entities. […] Treatment-induced cell lysis was analysed by LDH assay. […]

[6] = system: SNB-19 (glioma), AsPC-1 (pancreatic carcinoma), and PC3 (prostate cancer) cell lines; experiment: LDH assay of treatment-induced cell lysis (Example 4); type: cell-based, human; settings: H-1PV and/or increasing concentrations of LDV; 120 h (SNB19) or 96 h (AsPC1, PC3)
Experimental: as §1, §2
To further confirm the results shown in Examples 1-3, the oncolytic activity of H-1PV/LDV combination, was analysed by LDH assays. […]

Structure (SMILES) | enhancement of H-1PV oncotoxicity [1] | enhancement of H-1PV oncotoxicity [2] | interaction with H-1PV: fold increase in H-1PV cytotoxicity (PrestoBlue) [3] | treatment-induced cell lysis (LDH) (U-373 glioma cells) | cell proliferation and viability (normalized cell index) (SNB-19 cells) | cell proliferation and viability (normalized cell index) (AsPC-1 cells) | cytotoxic / cytopathic effects and morphological changes [4] | treatment-induced cell lysis (LDH) [5] | treatment-induced cell lysis (LDH) [6]
CN(C)CC[C@H](CSc1ccccc1)Nc1ccc(S(=O)(=O)NC(=O)c2ccc(N3CCN(Cc4ccccc4-c4ccc(Cl)cc4)CC3)cc2)cc1[N+](=O)[O-] [ABT-737] | enhance H-1PV oncotoxicity in a synergistic manner | enhance H-1PV oncotoxicity in a synergistic manner | synergized with H-1PV |  |  |  |  |  | 
Oc1ccc(O)cc1 [Hydroquinone] |  |  | did not interact with H-1 PV |  |  |  |  |  | 
COC(=O)N[C@H](C(=O)N1CC2(CC2)C[C@H]1c1ncc(-c2ccc3c(c2)C(F)(F)c2cc(-c4ccc5nc([C@@H]6[C@H]7CC[C@H](C7)N6C(=O)[C@@H](NC(=O)OC)C(C)C)[nH]c5c4)ccc2-3)[nH]1)C(C)C [LDV, methyl N-[(2S)-1-[(6S)-6-[5-[9,9-difluoro-7-[2-[(1R,3S,4S)-2-[(2S)-2-(methoxycarbonylamino)-3-methylbutanoyl]-2-azabicyclo[2.2.1]heptan-3-yl]-3H-benzimidazol-5-yl]fluoren-2-yl]-1H-imidazol-2-yl]-5-azaspiro[2.4]heptan-5-yl]-3-methyl-1-oxobutan-2-yl]carbamate] |  |  |  | did not induce cell lysis | did not affect cell proliferation | did not affect cell proliferation | did not induce any evident cytotoxic effects | did not induced cell lysis | did not induce cell lysis
